According to patent US6727264B1 (Synaptic Pharmaceutical Corporation, priority 2001, dated 2004):
Where two headings read alike, the source gives them in different places.

Target: rat MCH-1 (Rattus norvegicus, UniProt P97639)
Experiment: Radioligand binding assay at cloned rat MCH1 receptor ([3H] Compound A)
Parameters: host or cells: Peak rapid 293 (Peakr293) cells, transient calcium phosphate transfection, membranes
[1] = cloned rat MCH1 receptor, membranes from Peakr293 cells, 0.08 nM [3H] Compound A, read-out: Ki (nM) rMCH1
[2] = cloned rat MCH1 receptor, 0.08 nM [3H] Compound A, Peakr293 cell membranes, read-out: Ki (nM) rMCH1

Sequence of rat MCH-1 (P97639 whole entry): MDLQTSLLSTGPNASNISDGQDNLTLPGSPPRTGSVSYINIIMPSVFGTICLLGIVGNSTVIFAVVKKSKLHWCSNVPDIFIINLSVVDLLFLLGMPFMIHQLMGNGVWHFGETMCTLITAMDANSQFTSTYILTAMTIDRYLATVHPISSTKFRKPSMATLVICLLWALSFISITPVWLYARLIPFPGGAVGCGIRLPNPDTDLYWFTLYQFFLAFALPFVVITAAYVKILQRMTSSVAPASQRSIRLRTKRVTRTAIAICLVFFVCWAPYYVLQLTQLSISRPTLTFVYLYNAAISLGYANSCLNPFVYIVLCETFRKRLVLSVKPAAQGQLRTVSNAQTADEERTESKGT

SMILES | Ki [1] [nM] | Ki [2] [nM] | also measured
CC(C)C(=O)Nc1cccc(C2CCN(Cc3c(Br)cnn3Cc3ccc(Cl)cc3)CC2)c1 [Example 204] | 39.8 |  | 
CC(C)C(=O)Nc1cccc(C2CCN(CCC(=O)c3ccc(F)cc3)CC2)c1 [Example 123] | 450 |  | 
CC(C)C(=O)Nc1cccc(C2CCN(CC[C@H](NC(=O)c3ccco3)c3ccccc3)CC2)c1 [Example 326] | 19.2 |  | 
CCC(=O)Nc1cccc(C2CCN(Cc3cn(-c4ccc(Cl)cc4)c4ccccc34)CC2)c1 [Example 455] |  | 10.6 | 
CC(C)C(=O)Nc1cccc(C2CCN(CCCc3c(-c4ccc(Br)cc4)n(C)c4ccccc34)CC2)c1 [Example 759] |  | 9.3 | 
CC(=O)Nc1cccc(C2CCN(CCCNC(=O)C3=C(C)NC(=O)CC3c3ccc(F)cc3F)CC2)c1 (centres unmarked) [Example 622] |  | 162 | 
CC(C)C(=O)Nc1cccc(C2CCN(CCCNC(=O)Nc3ccccc3)CC2)c1 [Example 618] |  | 400 | 
CCC(=O)Nc1cccc(C2CCN(CCCC(=O)c3ccc(Oc4ccccc4)cc3)CC2)c1 [Example 536] |  | 150 | 
O=C(CCCN1CCC(c2cccc(NC(=O)C3CC3)c2)CC1)c1ccc(Oc2ccccc2)cc1 [Example 539] |  | 268 | 
Cc1cccc(-n2cc(CN3CCC(c4cccc(NC(=O)C(C)C)c4)CC3)c3ccccc32)c1 [Example 441] |  | 10.1 | 
COc1ccc(OC(CCN2CCC(c3cccc(NC(=O)C(C)C)c3)CC2)c2ccc(OC)cc2)cc1 (centres unmarked) [Example 167] | 80.4 |  | 
CC(C)C(=O)Nc1cccc(C2CCN(CCCc3c(-c4ccc(C(F)(F)F)cc4)[nH]c4c3ccc3ccccc34)CC2)c1 [Example 686, 2-METHYL-N-{3-[1-(3-(2-[4-(TRIFLUOROMETHYL)PHENYL]-1H-BENZO [G]INDOL-3-YL}PROPYL)-4-PIPERIDINYL]PHENYL}PROPANAMIDE] |  | 33.9 | 
CC(C)C(=O)Nc1cccc(C2CCN(CCC(Oc3ccc(Cl)cc3)c3ccc(Br)cc3)CC2)c1 (centres unmarked) [Example 159] | 4.5 |  | 
Cc1ccc(OCCCCN2CCC(c3cccc(NC(=O)C(C)C)c3)CC2)cc1C [Example 379] | 204 |  | 
CC(C)C(=O)Nc1cccc(C2CCN(CCCCCCNC(=O)Nc3ccccc3)CC2)c1 [Example 631] |  | 259 | 
CC(C)C(=O)Nc1cccc(C2CCN(CCCCCc3c(-c4ccccc4)n(C)c4ccccc34)CC2)c1 [Example 395] | 2.4 |  | 
CC(C)C(=O)Nc1cccc(C2CCN(CCCCNC(=O)c3cccc(Cl)c3)CC2)c1 [Example 657] |  | 77.9 | 
Cc1ccc(C(=O)CCCN2CCC(c3cccc(NC(=O)C4CC4)c3)CC2)cc1 [Example 547] |  | 75.5 | 
CC(C)C(=O)Nc1cccc(C2CCN(Cc3c[nH]c4c([N+](=O)[O-])cccc34)CC2)c1 [Example 513] |  | 179 | 
Cc1ccc2[nH]cc(CCCN3CCC(c4cccc(NC(=O)C(C)C)c4)CC3)c2c1 [Example 415] |  | 8.1 | 
CC(C)C(=O)Nc1cccc(C2CCN(CCCCCCN)CC2)c1 [Example 646] |  | 236 | 
Cc1onc(-c2c(F)cccc2Cl)c1C(=O)OCCCN1CCC(c2cccc(NC(=O)C(C)C)c2)CC1 [Example 287, 3-{4-[3-(ISOBUTYRYLAMINO)PHENYL]-1-PIPERIDINYL}PROPYL 3-(2-CHLORO-6-FLUOROPHENYL)-5-METHYL-4-ISOXAZOLECARBOXYLATE] | 34.3 |  | 
CC(C)C(=O)Nc1cccc(C2CCN(Cc3cn(-c4ccccc4F)c4ccccc34)CC2)c1 [Example 439] |  | 8.5 | 
COc1ccc(O[C@H](CCN2CCC(c3cccc(N(C)C(=O)C(C)C)c3)CC2)c2ccccc2)cc1OC [Example 353] | 41.8 |  | 

SMILES | Ki [1] [nM] | Ki [2] [nM] | also measured
CC(C)C(=O)Nc1cccc(C2CCN(CCCC(O)c3ccccc3)CC2)c1 (centres unmarked) [Example 279] | 74.5 |  | 
CC(C)C(=O)Nc1cccc(C2CCN(CC[C@H](NS(=O)(=O)c3cccc4c(N(C)C)cccc34)c3ccccc3)CC2)c1 [Example 594] |  | 67 | 
Cc1ccc2c(CN3CCC(c4cccc(NC(=O)C(C)C)c4)CC3)cn(-c3ccccc3)c2c1 [Example 505] |  | 6.5 | 
CC(C)C(=O)Nc1cccc(C2CCN(CCCCCCNC(=O)c3ccc4ccccc4c3)CC2)c1 [Example 628] |  | 161 | 
CC(C)C(=O)Nc1cccc(C2CCN(CC[C@H](NC(=O)c3cnn(-c4ccc([N+](=O)[O-])cc4)c3C(F)(F)F)c3ccccc3)CC2)c1 [Example 327] | 7.7 |  | 
CC(C)C(=O)Nc1cccc(C2CCN(Cc3c(OCc4cccc(Cl)c4)ccc4ccccc34)CC2)c1 [Example 192] | 80.5 |  | 
CC(C)C(=O)Nc1cccc(C2CCN(CCCNS(=O)(=O)c3ccc(Cl)c([N+](=O)[O-])c3)CC2)c1 [Example 104] | 11.2 |  | 
CCC(=O)Nc1cccc(C2CCN(Cc3cn(-c4cccc(Cl)c4)c4ccccc34)CC2)c1 [Example 456] |  | 28 | 
Cc1ccc(C(=O)CCCN2CCC(c3cccc(N(C)C(=O)C(C)C)c3)CC2)cc1C [Example 569] |  | 549 | 
CC(C)C(=O)Nc1cccc(C2CCN(Cc3cccc4[nH]ccc34)CC2)c1 [Example 830] |  |  | Ki: 469 nM
CCC(=O)Nc1cccc(C2CCN(CCCC(=O)c3ccc(C(C)C)cc3)CC2)c1 [Example 540] |  | 172 | 
COc1ccc(C(O)CCN2CCC(c3cccc(NC(=O)C(C)C)c3)CC2)cc1 (centres unmarked) [Example 128, N-(3-{1-[3-HYDROXY-3-(4- METHOXYPHENYL)PROPYL]-4-PIPERIDINYL}PHENYL)-2-METHYLPROPANAMIDE] | 329 |  | 
CC(C)C(=O)Nc1cccc(C2CCN(Cc3c(-c4ccc(F)cc4)[nH]c4ccccc34)CC2)c1 [Example 432] |  | 198 | 
CC(C)C(=O)Nc1cccc(C2CCN(CCCNS(=O)(=O)c3ccccc3F)CC2)c1 [Example 643] |  | 130 | 
CC(C)C(=O)Nc1cccc(C2CCN(C[C@@H](C)COc3ccc(Cl)cc3)CC2)c1 [Example 369] | 145 |  | 
COc1cccc2c(CCCCN3CCC(c4cccc(NC(=O)C(C)C)c4)CC3)c(-c3ccccc3)[nH]c12 [Example 406] |  | 12.3 | 
CC(C)C(=O)Nc1cccc(C2CCN(Cc3ccc(-c4cc(C(F)(F)F)nn4C)s3)CC2)c1 [Example 226] | 239 |  | 
CC(=O)c1cccc(OC(CCN2CCC(c3cccc(NC(=O)C(C)C)c3)CC2)c2ccc(Br)cc2)c1 (centres unmarked) [Example 154] | 9.3 |  | 
CC(C)C(=O)Nc1cccc(C2CCN(Cc3cn(C)c4ccccc34)CC2)c1 [Example 426] |  | 556 | 
CC(=O)c1ccccc1OC(CCN1CCC(c2cccc(NC(=O)C(C)C)c2)CC1)c1ccc(F)cc1 (centres unmarked) [Example 175] | 16.2 |  | 
COc1ccc2[nH]cc(CN3CCC(c4cccc(NC(=O)C(C)C)c4)CC3)c2c1 [Example 449] | 623 | 623 | 
Cc1onc(-c2ccccc2)c1C(=O)NCCCN1CCC(c2cccc(NC(=O)C(C)C)c2)CC1 [Example 638] |  | 29.8 | 
CC(C)C(=O)Nc1ccc(OC(F)(F)F)cc1C1CCN(CCCC(c2ccc(F)cc2)c2ccc(F)cc2)CC1 [Example 277] | 118 |  | 
CC(C)C(=O)Nc1cccc(C2CCN(C[C@H](Oc3cccc(Cl)c3)c3ccccc3)CC2)c1 [Example 339] | 890 |  | 

The next lines start with results.

Ki [1] [nM] | Ki [2] [nM] | SMILES | also measured
 | 306 | CC(C)C(=O)Nc1cccc(C2CCN(Cc3cccc4c3ccn4-c3ccc(Cl)cc3)CC2)c1 [Example 872] | 
 | 29.9 | CC(C)C(=O)Nc1cccc(C2CCN(CCCCC(Oc3cc(C(F)(F)F)ccc3F)c3ccc(C(F)(F)F)cc3)CC2)c1 (centres unmarked) [Example 929] | 
 | 6.9 | Cc1cccc2c(CCCN3CCC(c4cccc(NC(=O)C(C)C)c4)CC3)c(-c3ccccc3F)[nH]c12 [Example 710] | 
 | 94.6 | CC(C)C(=O)Nc1cccc(C2CCN(Cc3cccc4c3ccn4-c3ccc(F)cc3Cl)CC2)c1 [Example 865] | 
 | 1.1 | CC(C)C(=O)Nc1cccc(C2CCN(CCCc3c(-c4ccccc4Cl)n(C)c4ccccc34)CC2)c1 [Example 735] | 
 | 6.8 | CC(C)C(=O)Nc1cccc(C2CCN(CCCCC(Oc3ccc(Cl)cc3)c3ccccc3)CC2)c1 (centres unmarked) [Example 921] | 
 | 8.5 | CC(C)C(=O)Nc1cccc(C2CCN(CCCc3c(-c4ccc([N+](=O)[O-])cc4)[nH]c4c3ccc3ccccc34)CC2)c1 [Example 777] | 
 | 321 | Cc1cccc(-n2ccc3c(CN4CCC(c5cccc(NC(=O)C(C)C)c5)CC4)cccc32)c1 [Example 859] | 
 | 31.2 | Cc1ccc(C(=O)CCCN2CCC(c3cccc(NC(=O)C(C)C)c3)CC2)cc1 [Example 945] | 
 | 43 | CC1=C(C(=O)NCCCN2CCC(c3cccc(NC(=O)C(C)C)c3)CC2)C(c2ccc(F)cc2F)CC(=O)N1 (centres unmarked) [Example 796] | 
 | 4.2 | Cc1ccc2[nH]c(-c3cccc(F)c3)c(CCCN3CCC(c4cccc(NC(=O)C(C)C)c4)CC3)c2c1 [Example 706] | 
 | 80.2 | CC(C)C(=O)Nc1cccc(C2CCN(CCCCC(O)c3ccc(Cl)cc3)CC2)c1 (centres unmarked) [Example 819] | 
 | 10.1 | CC(=O)c1ccccc1OC(CCCCCN1CCC(c2cccc(NC(=O)C(C)C)c2)CC1)c1ccccc1F (centres unmarked) [Example 910] | 
 | 6.3 | Cc1cccc2c(CCCN3CCC(c4cccc(NC(=O)C(C)C)c4)CC3)c(-c3cccc(Br)c3)[nH]c12 [Example 762] | 
 | 25 | COc1ccccc1-n1ccc2cc(CN3CCC(c4cccc(NC(=O)C(C)C)c4)CC3)ccc21 [Example 841] | 
 | 21.2 | CC(C)C(=O)Nc1cccc(C2CCN(CCCC(=O)c3cccs3)CC2)c1 [Example 948] | 
 | 11.2 | CC(C)C(=O)Nc1cccc(C2CCN(CCCCCC(Oc3ccc(Br)cc3)c3ccc(F)cc3)CC2)c1 (centres unmarked) [Example 900] | 
 | 7.8 | CC(C)C(=O)Nc1cccc(C2CCN(Cc3cccc4c3ccn4-c3ccc(F)cc3)CC2)c1 [Example 836] | 
 | 127 | CC(C)C(=O)Nc1cccc(C2CCN(CCCCC(O)c3cccc(F)c3)CC2)c1 (centres unmarked) [Example 815] | 
 | 51.1 | CC1=C(C(=O)NCCCN2CCC(c3cccc(NC(=O)C(C)C)c3)CC2)C(c2ccc(F)c(F)c2)CC(=O)N1 (centres unmarked) [Example 795] | 
 | 11.1 | CC(C)C(=O)Nc1cccc(C2CCN(CCCc3c(-c4ccc([N+](=O)[O-])cc4)n(C)c4ccccc34)CC2)c1 [Example 788] | 
 | 256 | CC(C)C(=O)Nc1cccc(C2CCN(Cc3cccc4ccn(-c5cccc(Cl)c5Cl)c34)CC2)c1 [Example 855] | 
